The test addresses T1, full-length recombinant human NEK7 (Homo sapiens, UniProt Q8TDX7).
T1 construct: full-length recombinant human NEK7; GST (N); purchased SignalChem N09-10G; host or cells: Sf9 insect cells (baculovirus)
Briefly: NEK7 enzymatic assay. In kind it is biochemical. To be noted: casein substrate, [32P]-ATP, radiometric P81 filter assay. Here is the method:
Casein substrate (from bovine milk, hydrolyzed and partially dephosphorylated mixture of α, β, and κ caseins, obtained from Sigma Aldrich, catalogue #C4765, diluted in distilled water to a final concentration of 1 mg/mL, assay concentration 20 μM) and full-length recombinant human NEK7 (expressed by baculovirus in Sf9 insect cells using a N-terminal GST tag, obtained from SignalChem, catalogue #N09-10G, […], assay concentration 70 nM) were mixed in assay buffer (20 mM Hepes pH 7.5, 10 mM MgCl2, 1 mM EGTA, 0.02% Brij35, 0.02 mg/mL BSA, 0.1 mM […], 2 mM DTT, 1% DMSO). Compounds of interest (in DMSO, serial 3-fold dilution from 10 μM to 0.5 nM) or control (1% DMSO) were dispensed into the kinase reaction mixture by Acoustic technology (Echo550; nanoliter range). After incubation at room temperature for 20 minutes, the kinase reaction was initiated by addition of [^32P]-ATP (Specific activity 10 μUCi/μl) and the mixture was incubated at room temperature for 2 hours. The reaction was then stopped by spotting the reaction mixture on strips of phosphocellulose P81 paper. Following washing, the radioactivity of the P81 paper was measured and kinase activity data were expressed as the percent remaining kinase activity in test samples compared to vehicle (dimethyl sulfoxide) reactions. IC50 values and curve fits were obtained using Prism (GraphPad Software).
Representative compounds were tested for inhibitory activity against NEK7 and IL-1β release according to the procedures described above.

T1 sequence (Q8TDX7 whole entry): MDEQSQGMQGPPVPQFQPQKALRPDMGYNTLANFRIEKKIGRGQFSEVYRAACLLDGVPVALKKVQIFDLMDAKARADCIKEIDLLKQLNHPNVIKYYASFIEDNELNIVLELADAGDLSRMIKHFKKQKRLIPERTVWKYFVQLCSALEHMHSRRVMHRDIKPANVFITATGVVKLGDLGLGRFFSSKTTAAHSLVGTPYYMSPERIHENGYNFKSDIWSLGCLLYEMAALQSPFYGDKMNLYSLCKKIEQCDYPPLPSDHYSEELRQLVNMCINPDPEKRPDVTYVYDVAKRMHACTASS

As usually defined, the IC50 is the point on the concentration scale where inhibition reaches its midpoint. For the compound `CN1C[C@@H]2CN(Cc3ccc(NC(=O)Nc4ccc(Oc5ccnc6[nH]cc(Cl)c56)cc4F)cc3C(F)(F)F)C[C@@H]2C1` [Example I-15, 1-(4-((3-chloro-1H-pyrrolo[2,3-b]pyridin-4-yl)oxy)-2-fluorophenyl)-3-(4-(((3aR,6aS)-5-methylhexahydropyrrolo[3,4-c]pyrrol-2(1H)-yl)methyl)-3-(trifluoromethyl)phenyl)urea], the IC50 is 200 to 500 nM.
As for `CN1CCN(Cc2ccc(NC(=O)Nc3ccc(Oc4ccnc5[nH]cc(Cl)c45)cc3F)cc2C(F)(F)F)C2(CC2)C1` [Example I-20, 1-(4-((3-chloro-1H-pyrrolo[2,3-b]pyridin-4-yl)oxy)-2-fluorophenyl)-3-(4-((7-methyl-4,7-diazaspiro[2.5]octan-4-yl)methyl)-3-(trifluoromethyl)phenyl)urea], the figure is over 2000 nM; as for `CN1CCN(Cc2ccc(NC(=O)Nc3ccc(Oc4ccnc5[nH]cc(Cl)c45)cc3F)cc2C2CC2)CC1` [Example I-26, 1-(4-((3-chloro-1H-pyrrolo[2,3-b]pyridin-4-yl)oxy)-2-fluorophenyl)-3-(3-cyclopropyl-4-((4-methylpiperazin-1-yl)methyl)phenyl)urea], 500 to 2000 nM.
Consider `CN1CCN(Cc2ccc(NC(=O)Nc3ccc(Oc4ccnc5[nH]cc(Cl)c45)cc3F)cc2Cl)CC1` [Example I-30, 1-(4-((3-chloro-1H-pyrrolo[2,3-b]pyridin-4-yl)oxy)-2-fluorophenyl)-3-(3-chloro-4-((4-methylpiperazin-1-yl)methyl)phenyl)urea], for which the IC50 fell in the range of 500 to 2000 nM.
Turning to `Cc1cn(-c2ccc(NC(=O)Nc3ccc(Oc4ccnc5[nH]cc(Cl)c45)cc3F)cc2C(F)(F)F)cn1` [Example I-32, 1-(4-((3-chloro-1H-pyrrolo[2,3-b]pyridin-4-yl)oxy)-2-fluorophenyl)-3-(4-(4-methyl-1H-imidazol-1-yl)-3-(trifluoromethyl)phenyl)urea], the IC50 is over 2000 nM.
With `CN1CCCN(Cc2ccc(NC(=O)Nc3ccc(Oc4ccnc5[nH]cc(Cl)c45)cc3F)cc2C(F)(F)F)CC1` [Example I-33, 1-(4-((3-chloro-1H-pyrrolo[2,3-b]pyridin-4-yl)oxy)-2-fluorophenyl)-3-(4-((4-methyl-1,4-diazepan-1-yl)methyl)-3-(trifluoromethyl)phenyl)urea] the figure was 500 to 2000 nM; with `CN1CCN(Cc2ncc(NC(=O)Nc3ccc(Oc4ccnc5[nH]cc(Cl)c45)cc3F)cc2C(F)(F)F)CC1` [Example I-46, 1-(4-((3-chloro-1H-pyrrolo[2,3-b]pyridin-4-yl)oxy)-2-fluorophenyl)-3-(6-((4-methylpiperazin-1-yl)methyl)-5-(trifluoromethyl)pyridin-3-yl)urea], 500 to 2000 nM; with `O=C(Nc1ccc(CN2CCC(F)(F)CC2)c(C(F)(F)F)c1)Nc1ccc(Oc2ccnc3[nH]cc(Cl)c23)cc1F` [Example I-47, 1-(4-((3-chloro-1H-pyrrolo[2,3-b]pyridin-4-yl)oxy)-2-fluorophenyl)-3-(4-((4,4-difluoropiperidin-1-yl)methyl)-3-(trifluoromethyl)phenyl)urea], over 2000 nM.
As for `O=C(Nc1ccc(OC2CCN(C3COC3)CC2)c(C(F)(F)F)c1)Nc1ccc(Oc2ccnc3[nH]cc(Cl)c23)cc1F` [Example I-48, 1-(4-((3-chloro-1H-pyrrolo[2,3-b]pyridin-4-yl)oxy)-2-fluorophenyl)-3-(4-((1-(oxetan-3-yl)piperidin-4-yl)oxy)-3-(trifluoromethyl)phenyl)urea], the figure is over 2000 nM.
In the case of `CC(=O)N1CCN(Cc2ccc(NC(=O)Nc3ccc(Oc4ccnc5[nH]cc(Cl)c45)cc3F)cc2C(F)(F)F)CC1` [Example I-49, 1-(4-((4-acetylpiperazin-1-yl)methyl)-3-(trifluoromethyl)phenyl)-3-(4-((3-chloro-1H-pyrrolo[2,3-b]pyridin-4-yl)oxy)-2-fluorophenyl)urea], the IC50 was over 2000 nM.
As to `O=C(Nc1ccc(CN2CCN(CCF)CC2)c(C(F)(F)F)c1)Nc1ccc(Oc2ccnc3[nH]cc(Cl)c23)cc1F` [Example I-50, 1-(4-((3-chloro-1H-pyrrolo[2,3-b]pyridin-4-yl)oxy)-2-fluorophenyl)-3-(4-((4-(2-fluoroethyl)piperazin-1-yl)methyl)-3-(trifluoromethyl)phenyl)urea], the IC50 lay within 500 to 2000 nM.
With `O=C(Nc1ccc(CN2CCNCC2)c(C(F)(F)F)c1)Nc1ccc(Oc2ccnc3[nH]cc(Cl)c23)cc1F` [Example I-55, 1-(4-((3-chloro-1H-pyrrolo[2,3-b]pyridin-4-yl)oxy)-2-fluorophenyl)-3-(4-(piperazin-1-ylmethyl)-3-(trifluoromethyl)phenyl)urea] the figure was 200 to 500 nM.
With `CN(C)C1CCN(Cc2ccc(NC(=O)Nc3ccc(Oc4ccnc5[nH]cc(Cl)c45)cc3F)cc2C(F)(F)F)CC1` [Example I-57, 1-(4-((3-chloro-1H-pyrrolo[2,3-b]pyridin-4-yl)oxy)-2-fluorophenyl)-3-(4-((4-(dimethylamino)piperidin-1-yl)methyl)-3-(trifluoromethyl)phenyl)urea] the figure was over 2000 nM; with `CN1CCN(Cc2ccc(NC(=O)Nc3ccc(Oc4ccnc5[nH]cc(Cl)c45)cc3F)cc2C(F)(F)F)CC12CC2` [Example I-60, 1-(4-((3-chloro-1H-pyrrolo[2,3-b]pyridin-4-yl)oxy)-2-fluorophenyl)-3-(4-((4-methyl-4,7-diazaspiro[2.5]octan-7-yl)methyl)-3-(trifluoromethyl)phenyl)urea], over 2000 nM.
As to `Cc1c[nH]c2nccc(Oc3ccc(NC(=O)Nc4cnc(OC5CCN(C)CC5)c(C(F)(F)F)c4)c(F)c3)c12` [Example I-61, 1-(2-fluoro-4-((3-methyl-1H-pyrrolo[2,3-b]pyridin-4-yl)oxy)phenyl)-3-(6-((1-methylpiperidin-4-yl)oxy)-5-(trifluoromethyl)pyridin-3-yl)urea], the concentration for half-maximal inhibition (IC50) was under 200 nM.
In the case of `CN1CCN(Cc2ccc(NC(=O)Nc3ccc(Oc4ccnc5[nH]cc(Cl)c45)cc3F)cc2OC(F)(F)F)CC1` [Example I-62, 1-(4-((3-chloro-1H-pyrrolo[2,3-b]pyridin-4-yl)oxy)-2-fluorophenyl)-3-(4-((4-methylpiperazin-1-yl)methyl)-3-(trifluoromethoxy)phenyl)urea], the IC50 was under 200 nM.
With `Cc1c[nH]c2nccc(Oc3ccc(NC(=O)Nc4ccc(OC5CCN(C)CC5)c(C(F)(F)F)c4)c(F)c3)c12` [Example I-63, 1-(2-fluoro-4-((3-methyl-1H-pyrrolo[2,3-b]pyridin-4-yl)oxy)phenyl)-3-(4-((1-methylpiperidin-4-yl)oxy)-3-(trifluoromethyl)phenyl)urea] the figure was under 200 nM; with `CCN1CCC(Oc2ccc(NC(=O)Nc3ccc(Oc4ccnc5[nH]cc(Cl)c45)cc3F)cc2C(F)(F)F)CC1` [Example I-64, 1-(4-((3-chloro-1H-pyrrolo[2,3-b]pyridin-4-yl)oxy)-2-fluorophenyl)-3-(4-((1-ethylpiperidin-4-yl)oxy)-3-(trifluoromethyl)phenyl)urea], under 200 nM.
As for `CN1CCN(Cc2cc(NC(=O)Nc3ccc(Oc4ccnc5[nH]cc(Cl)c45)cc3F)cc(C(F)(F)F)c2)CC1` [Example I-65, 1-(4-((3-chloro-1H-pyrrolo[2,3-b]pyridin-4-yl)oxy)-2-fluorophenyl)-3-(3-((4-methylpiperazin-1-yl)methyl)-5-(trifluoromethyl)phenyl)urea], the figure is 500 to 2000 nM; as for `CN1CCC(Oc2ccc(NC(=O)Nc3ccc(Oc4ccnc5[nH]cc(Cl)c45)cc3F)cc2C(F)(F)F)C(F)C1` (stereo not drawn) [Example I-66, 1-(4-((3-chloro-1H-pyrrolo[2,3-b]pyridin-4-yl)oxy)-2-fluorophenyl)-3-(4-((3-fluoro-1-methylpiperidin-4-yl)oxy)-3-(trifluoromethyl)phenyl)urea], 500 to 2000 nM.
On to `CN1CCN(C2CC(F)(F)c3cc(NC(=O)Nc4ccc(Oc5ccnc6[nH]cc(Cl)c56)cc4F)ccc32)CC1` (stereo not drawn) [Example I-67, 1-(4-((3-chloro-1H-pyrrolo[2,3-b]pyridin-4-yl)oxy)-2-fluorophenyl)-3-(3,3-difluoro-1-(4-methylpiperazin-1-yl)-2,3-dihydro-1H-inden-5-yl)urea], for which the IC50 is over 2000 nM.

Source of the values: patent US20250177382A1, “NEK7 INHIBITORS” (Halia Therapeutics, Inc., priority 2021, published 2025).
